What was measured:
[1] = system: sorbitol accumulation in the sciatic nerve; experiment: inhibition of sorbitol accumulation in the sciatic nerve of streptozotocinized (diabetic) rats; type: in vivo, rat; conditions: oral, 0.1-10.0 mg./kg., in words
Experimental: (§1) The activity of the compounds of the present invention, as agents for the control of chronic diabetic complications, is determined by their ability to successfully pass one or more of the following standard biological or pharmacological tests, viz., (1) measuring their ability to inhibit the enzyme activity of isolated aldose reductase; (2) measuring their ability to reduce or inhibit sorbitol accumulation in the sciatic nerve and lens of acutely streptozotocinized (i.e., diabetic) rats; (3) measuring their ability to reverse already-elevated sorbitol levels in the sciatic nerve and lens of chronic streptozotocin-induced diabetic rats; (4) measuring their ability to prevent or inhibit galactitol formation in the lens of acutely galactosemic rats, and (5) measuring their ability to delay cataract formation and reduce the severity of lens opacities in chronic galactosemic rats.
(§2) The following spiro-3-heteroazolone compounds of Examples 4A, 4B, 6 and 10A, respectively, were tested for their ability to reduce or inhibit sorbitol accumulation in the sciatic nerve and lens of streptozotocinized (i.e., diabetic) rats by the procedure essentially described in U.S. Pat. No. 3,821,383. In the present study, the amount of sorbitol accumulation in the sciatic nerve and lens of each test animal was measured 27 hours after induction of diabetes. […]

[2] = system: sorbitol accumulation in the lens; experiment: inhibition of sorbitol accumulation in the lens of streptozotocinized (diabetic) rats; type: in vivo, rat; conditions: oral, 0.1-10.0 mg./kg., in words
Experimental: as §1, §2

Question: For `C[C@@H]1C[C@]2(NC(=O)NC2=O)c2cc(Cl)cnc2O1` [Example 10A, (4'S)(2'R)-6'-chloro-2',3'-dihydro-2'-methyl-spiro-[imidazolidine-4,4'-4'H-pyrano[2,3-b]pyridine]-2,5-dione], which “inhibit the formation of sorbitol levels in the sciatic nerve” value [1] is on record?
Answer: to a significantly high degree

Question: What about the “inhibit the formation of sorbitol levels in the lens” value [2] of the same compound?
Answer: to a significantly high degree
